A short description of series [1]: Brain penetration in rats. The class given is in vivo. Particulars: male, rat, 10 mg/kg oral gavage, 8 hour post-dosing. The method, then: This testing was performed to test the ability of compounds to penetrate the blood-brain-barrier in rats. The testing was performed according to the following procedure: 1) For each compound, take 3 male rats with body weight of 217-228 g, formulate compound using 0.5% HPMC/water suspension at concentration of 1 mg/ml; 2) After fasting overnight, administer compound at 10 mg/kg by oral gavage; 3) Take plasma samples at 1, 2, 4, 8 hours post-dosing; 4) At 8 hour post-dosing, also take brain tissues and cerebrospinal fluid (CSF); 5) Analyze compound concentration in plasma, brain tissue, and CSF using LC-MS/MS method.

In series [2] the target is T1, JAK1 (Homo sapiens, UniProt P23458).
T1 construct: purchased Reaction Biology Corp, Malvern, PA (contract testing)
The series is described as follows: JAK1 cellular ELISA assay using PBMC cells (IL-6 stimulated STAT3 phosphorylation). The class given is cell-based. Particulars: IL-6 100 ng/ml, 25 min. As for the experimental part:
This testing was performed to test cellular JAK1 activity using the IL-6 stimulated STAT3 phosphorylation assay in PBMC cells. The testing was performed according to the following procedure: 1) Plate PBMC cells to 96-well plate at density of ˜300,000 cell/well; 2) Add different concentrations of test article to wells, maintain in incubator at 37° C. and 5% CO2 for 1 hour; 3) Add IL-6 (final concentration: 100 ng/ml) to stimulate for 25 min in the above incubator; 4) After stimulation, transfer the suspension to 1.5 mL tube, centrifuge at 200 g for 5 min, collect cells, add 100 μL 1× lysate, lyse on ice for 1 hour; 5) Centrifuge at 4° C. and 12000 rpm for 10 min, take the supernatant and analyze according to instructions of the ELISA kit. In this assay, compounds of Formulae (II) and (III) had IC50<300 nM.
Background: In an ELISA, binding on a coated surface is turned into a signal by an enzyme label.

Another series addresses T2, JAK3 (Homo sapiens, UniProt P52333).
T2 construct: purchased Reaction Biology Corp, Malvern, PA (contract testing)
T2 sequence (P52333 1-1124): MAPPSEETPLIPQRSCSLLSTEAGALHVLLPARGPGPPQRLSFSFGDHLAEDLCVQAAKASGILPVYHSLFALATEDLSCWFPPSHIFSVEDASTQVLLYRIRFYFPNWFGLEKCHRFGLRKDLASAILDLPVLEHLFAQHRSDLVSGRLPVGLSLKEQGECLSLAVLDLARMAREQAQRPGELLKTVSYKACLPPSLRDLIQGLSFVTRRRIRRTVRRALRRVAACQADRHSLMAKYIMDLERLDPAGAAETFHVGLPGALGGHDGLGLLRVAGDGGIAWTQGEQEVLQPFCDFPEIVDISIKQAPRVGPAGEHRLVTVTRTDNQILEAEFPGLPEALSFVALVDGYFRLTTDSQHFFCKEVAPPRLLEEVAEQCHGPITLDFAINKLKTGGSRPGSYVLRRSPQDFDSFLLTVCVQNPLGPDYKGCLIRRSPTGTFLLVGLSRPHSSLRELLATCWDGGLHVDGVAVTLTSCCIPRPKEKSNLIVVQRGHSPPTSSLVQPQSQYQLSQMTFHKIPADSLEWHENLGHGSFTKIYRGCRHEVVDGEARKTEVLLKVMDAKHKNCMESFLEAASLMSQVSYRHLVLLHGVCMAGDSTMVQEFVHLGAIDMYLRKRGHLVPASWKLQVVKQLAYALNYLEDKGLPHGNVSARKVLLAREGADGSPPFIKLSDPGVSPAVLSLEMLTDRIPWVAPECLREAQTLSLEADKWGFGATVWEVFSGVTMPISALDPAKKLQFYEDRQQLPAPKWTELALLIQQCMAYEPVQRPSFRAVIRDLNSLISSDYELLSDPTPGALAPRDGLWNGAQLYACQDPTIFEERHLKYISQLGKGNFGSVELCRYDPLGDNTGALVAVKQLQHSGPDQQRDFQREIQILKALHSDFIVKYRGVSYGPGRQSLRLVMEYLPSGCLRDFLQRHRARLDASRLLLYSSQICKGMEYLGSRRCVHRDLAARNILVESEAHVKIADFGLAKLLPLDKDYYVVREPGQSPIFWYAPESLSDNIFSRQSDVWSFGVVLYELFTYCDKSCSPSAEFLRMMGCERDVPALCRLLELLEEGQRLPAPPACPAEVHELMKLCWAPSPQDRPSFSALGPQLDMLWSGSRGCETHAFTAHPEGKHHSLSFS
The series is described as follows: JAK3 biochemical test (33P-ATP filter binding, Reaction Biology). The following applies: read-out: Inhibition of JAK3 (IC50). As for the experimental part: (§1) The tests were conducted by Reaction Biology Corp, Malvern, PA (Anastassiadis et al. Nat Biotechnol. 2011; 29(11):1039-45). The step is briefly described as follows, using the basic reaction buffer: 20 mM Hepes (pH 7.5), 10 mM MgCl2, 1 mM EGTA, 0.02% Brij35, 0.02 mg/ml BSA, 0.1 mM Na3VO4, 2 mM DTT and 1% DMSO. The required cofactor was added to each kinase reaction respectively. Each reaction was performed according to the following reaction steps: 1) Preparing the designated substrate in the newly prepared basic reaction buffer; 2) Transferring the required cofactor to the above matrix solution; 3) Transferring the designated kinase to the substrate solution and mixing well slightly; 4) Transferring a compound of Formula (I) in DMSO to the kinase reaction mixture with Acoustic technique (Echo550; nanoliter range), culturing for 20 minutes at room temperature; 5) Introducing ^33P-ATP (specific activity: 10 μCi/μl) to the reaction mixture to trigger a reaction; 6) Culturing at room temperature and conducting a kinase reaction for 2 hours; 7) Plotting the reaction on P81 ion exchange paper; and 8) Testing the kinase activity with a filter binding assay. The results shown in Table 1 indicate that compounds of Formulae (I)-(III) are potent and selective TYK2/JAK1 inhibitors.

For a further series, the target named is T3, JAK2 (Homo sapiens, UniProt O60674).
T3 construct: purchased Reaction Biology Corp, Malvern, PA (contract testing)
Description: JAK2 biochemical test (33P-ATP filter binding, Reaction Biology). Particulars: read-out: Inhibition of JAK2 (IC50). As for the experimental part: as §1

In series [3] the target is T1, JAK1. The series is described as follows: JAK1 biochemical test (33P-ATP filter binding, Reaction Biology). The following applies: read-out: Inhibition of JAK1 (IC50). The method, then: as §1
Series [4] in a line: Brain penetration in mice. The format is in vivo, C57BL/6 mice. Particulars: male, mouse, 30 mg/kg oral gavage, 4-hour post-dosing. As for the experimental part: This testing was performed to test the ability of compounds to penetrate the blood-brain-barrier in mice. The testing was performed according to the following procedure: 1) for each compound, take 3 male C57BL/6 mice with body weight of 17-18 g, formulate compound using 0.5% HPMC/water suspension at concentration of 3 mg/ml; 2) After fasting overnight, administer compound at 30 mg/kg by oral gavage; 3) Take plasma samples at 1, 2, 4 hours post-dosing; 4) At 4-hour post-dosing, also take brain tissues and cerebrospinal fluid (CSF) fluid; 5) Analyze compound concentration in plasma, brain tissue, and CSF fluid using LC-MS/MS method.

Series [5] deals with T4, TYK2 (Homo sapiens, UniProt P29597).
T4 construct: purchased Reaction Biology Corp, Malvern, PA (contract testing)
The series is described as follows: TYK2 cellular ELISA assay using NK92 cells (IL-12 and IL-18 stimulated IFNγ excretion). The class given is cell-based. The following applies: IL-12 2 ng/ml, IL-18 5 ng/ml, 24 hours. The method, then: This testing was performed to test cellular TYK2 activity using IL-12 and IL-18 stimulated IFNγ excretion assay in NK92 cells. The testing was performed according to the following procedure: 1) Replace NK92 cell media containing IL-2 with media not containing IL-2, maintain overnight; 2) Plate NK92 cells to 96-well plate at density of ˜150,000 cell/well; 3) Add different concentrations of test article to wells, maintain in incubator at 37° C. and 5% CO2 for 1 hour; 4) Add IL-12 (final concentration: 2 ng/ml) and IL-18 (final concentration: 5 ng/ml) to stimulate for 24 hours in the above incubator; 5) After 24 hours, centrifuge at 2000 rpm for 5 min, take the supernatant and analyze according to instructions of the ELISA kit. In this assay, compounds of Formulae (II) and (III) had IC50<100 nM.

The target in series [6] is T4, TYK2. Description: TYK2 biochemical test (33P-ATP filter binding, Reaction Biology). The following applies: read-out: Inhibition of TYK2 (IC50). The method, then:
as §1

Read-outs that look alike come from different tables or passages of the source.

T4 sequence (P29597 whole entry): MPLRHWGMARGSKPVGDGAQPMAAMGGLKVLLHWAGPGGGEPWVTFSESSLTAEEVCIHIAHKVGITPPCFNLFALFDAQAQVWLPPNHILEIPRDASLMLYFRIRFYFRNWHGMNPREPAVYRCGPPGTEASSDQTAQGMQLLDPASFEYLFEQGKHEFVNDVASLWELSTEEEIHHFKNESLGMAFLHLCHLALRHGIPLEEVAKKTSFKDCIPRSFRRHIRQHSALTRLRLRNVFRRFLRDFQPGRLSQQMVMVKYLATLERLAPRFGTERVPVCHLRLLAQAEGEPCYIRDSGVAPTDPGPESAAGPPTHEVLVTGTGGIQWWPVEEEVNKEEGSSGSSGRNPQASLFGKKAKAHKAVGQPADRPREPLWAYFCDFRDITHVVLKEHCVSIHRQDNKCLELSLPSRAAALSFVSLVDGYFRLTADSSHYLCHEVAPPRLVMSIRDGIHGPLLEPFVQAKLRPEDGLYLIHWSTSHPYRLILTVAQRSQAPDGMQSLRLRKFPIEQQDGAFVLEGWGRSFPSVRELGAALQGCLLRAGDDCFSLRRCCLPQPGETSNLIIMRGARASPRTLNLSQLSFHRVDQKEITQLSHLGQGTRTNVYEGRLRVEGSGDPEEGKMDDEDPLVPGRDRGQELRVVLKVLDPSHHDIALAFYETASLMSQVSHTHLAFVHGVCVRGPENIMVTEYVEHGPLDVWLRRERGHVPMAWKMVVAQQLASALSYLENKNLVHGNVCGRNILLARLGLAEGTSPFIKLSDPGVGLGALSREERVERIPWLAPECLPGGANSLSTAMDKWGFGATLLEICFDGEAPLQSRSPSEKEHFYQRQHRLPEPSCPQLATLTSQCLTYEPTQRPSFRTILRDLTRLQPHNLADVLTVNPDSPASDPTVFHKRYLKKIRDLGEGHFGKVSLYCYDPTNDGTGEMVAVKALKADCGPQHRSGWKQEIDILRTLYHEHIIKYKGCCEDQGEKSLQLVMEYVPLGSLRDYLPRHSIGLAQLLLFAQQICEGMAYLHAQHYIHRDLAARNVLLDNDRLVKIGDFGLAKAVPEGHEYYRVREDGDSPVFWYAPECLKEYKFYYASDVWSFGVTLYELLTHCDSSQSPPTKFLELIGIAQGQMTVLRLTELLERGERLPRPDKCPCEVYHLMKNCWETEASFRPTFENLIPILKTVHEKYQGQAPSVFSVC
T1 sequence (P23458 whole entry): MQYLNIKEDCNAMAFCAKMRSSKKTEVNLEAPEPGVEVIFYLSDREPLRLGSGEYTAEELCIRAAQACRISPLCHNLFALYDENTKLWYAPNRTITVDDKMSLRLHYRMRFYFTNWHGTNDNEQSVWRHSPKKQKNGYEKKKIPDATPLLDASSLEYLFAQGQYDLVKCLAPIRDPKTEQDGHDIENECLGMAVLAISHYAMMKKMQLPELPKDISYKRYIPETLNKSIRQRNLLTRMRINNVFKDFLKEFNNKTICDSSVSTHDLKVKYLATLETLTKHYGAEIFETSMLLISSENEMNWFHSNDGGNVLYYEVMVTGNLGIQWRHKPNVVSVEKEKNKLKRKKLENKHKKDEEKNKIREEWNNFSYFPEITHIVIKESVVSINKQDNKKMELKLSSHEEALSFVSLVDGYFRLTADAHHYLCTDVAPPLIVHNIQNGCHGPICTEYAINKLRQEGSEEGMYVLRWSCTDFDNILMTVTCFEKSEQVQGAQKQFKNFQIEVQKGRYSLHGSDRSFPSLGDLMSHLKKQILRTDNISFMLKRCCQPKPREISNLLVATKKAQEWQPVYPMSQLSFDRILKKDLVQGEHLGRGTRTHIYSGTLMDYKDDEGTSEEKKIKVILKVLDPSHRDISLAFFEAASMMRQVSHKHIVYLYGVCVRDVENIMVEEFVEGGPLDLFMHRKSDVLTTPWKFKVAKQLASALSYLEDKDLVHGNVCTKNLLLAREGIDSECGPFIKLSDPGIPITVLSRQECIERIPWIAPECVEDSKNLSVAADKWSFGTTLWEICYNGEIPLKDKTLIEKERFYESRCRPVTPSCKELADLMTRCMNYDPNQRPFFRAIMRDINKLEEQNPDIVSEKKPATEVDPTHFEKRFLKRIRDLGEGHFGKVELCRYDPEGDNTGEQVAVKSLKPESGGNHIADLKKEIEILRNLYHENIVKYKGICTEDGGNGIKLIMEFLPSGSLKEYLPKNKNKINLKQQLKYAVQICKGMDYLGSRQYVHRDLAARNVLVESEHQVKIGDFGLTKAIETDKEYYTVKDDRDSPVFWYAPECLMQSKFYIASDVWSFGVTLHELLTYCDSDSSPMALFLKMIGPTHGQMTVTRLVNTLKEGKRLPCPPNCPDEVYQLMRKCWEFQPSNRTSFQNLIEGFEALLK
T3 sequence (O60674 whole entry): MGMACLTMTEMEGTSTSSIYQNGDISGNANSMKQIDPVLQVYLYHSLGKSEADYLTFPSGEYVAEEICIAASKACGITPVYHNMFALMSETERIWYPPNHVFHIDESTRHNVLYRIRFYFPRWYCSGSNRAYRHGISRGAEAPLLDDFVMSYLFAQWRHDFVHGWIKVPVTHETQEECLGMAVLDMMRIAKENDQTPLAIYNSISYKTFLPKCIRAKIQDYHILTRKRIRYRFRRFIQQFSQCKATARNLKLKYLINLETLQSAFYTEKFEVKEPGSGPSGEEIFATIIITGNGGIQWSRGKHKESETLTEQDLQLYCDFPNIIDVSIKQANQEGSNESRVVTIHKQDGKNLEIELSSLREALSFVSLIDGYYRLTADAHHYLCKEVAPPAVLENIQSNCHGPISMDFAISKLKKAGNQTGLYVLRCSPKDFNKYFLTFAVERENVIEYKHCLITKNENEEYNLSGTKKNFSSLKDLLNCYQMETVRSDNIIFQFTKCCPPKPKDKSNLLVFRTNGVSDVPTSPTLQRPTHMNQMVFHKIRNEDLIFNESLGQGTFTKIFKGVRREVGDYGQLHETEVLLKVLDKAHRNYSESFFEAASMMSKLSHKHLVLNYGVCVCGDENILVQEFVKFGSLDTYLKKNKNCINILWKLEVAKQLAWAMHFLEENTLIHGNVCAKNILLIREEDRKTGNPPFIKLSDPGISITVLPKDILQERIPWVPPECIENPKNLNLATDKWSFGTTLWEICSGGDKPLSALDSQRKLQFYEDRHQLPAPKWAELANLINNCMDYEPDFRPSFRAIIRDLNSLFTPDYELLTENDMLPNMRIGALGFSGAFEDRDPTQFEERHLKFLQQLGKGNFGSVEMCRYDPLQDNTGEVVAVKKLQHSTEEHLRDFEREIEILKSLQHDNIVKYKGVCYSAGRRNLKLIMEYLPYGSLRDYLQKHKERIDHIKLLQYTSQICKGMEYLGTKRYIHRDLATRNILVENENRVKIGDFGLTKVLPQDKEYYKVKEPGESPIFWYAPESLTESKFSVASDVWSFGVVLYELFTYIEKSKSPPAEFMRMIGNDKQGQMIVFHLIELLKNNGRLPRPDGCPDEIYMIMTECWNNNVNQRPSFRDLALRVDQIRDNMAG

In general, IC50 refers to the concentration that gives 50% inhibition. For the molecule `Cc1nc2cnc3ccoc3c2n1[C@H]1CC[C@H](CC#N)CC1` [Formula (III)], the Kp at 8 h in series [1] (CSF/plasma, read-out: CSF (ng/ml)/ Plasma (ng/ml)) was above 0.15; in series [1] (brain/plasma, read-out: Brain (ng/ml)/ Plasma (ng/ml)), above 0.4. Moreover, the IC50 is below 300 nM at JAK1 [2]; above 100 nM at JAK3; above 20 nM on JAK2; below 10 nM at JAK1 [3]; below 100 nM against TYK2 [5]; below 10 nM at TYK2 [6]. The Kp at 4 h in series [4] (C57BL/6, CSF/plasma, read-out: CSF (ng/ml)/ Plasma (ng/ml)) was above 0.15; in series [4] (C57BL/6, brain/plasma, read-out: Brain (ng/ml)/ Plasma (ng/ml)), above 0.3.

Consider `CCc1nc2cnc3ccoc3c2n1[C@H]1CC[C@H](CC#N)OC1` [Formula (I)], for which the IC50 on JAK2 is above 200 nM; at JAK1 [3], below 10 nM; at TYK2 [6], below 100 nM.

The record behind these values is patent publication US20250032465A1, “METHODS OF TREATING CNS DISORDERS” (HANGZHOU HIGHLIGHTLL PHARMACEUTICAL CO., LTD, priority 2021, published 2025).
